The record followed here is ChEMBL document CHEMBL4828717, “Synthetic cajaninstilbene acid derivatives eradicate methicillin-resistant Staphylococcus aureus persisters and biofilms” (Eur J Med Chem, 2021).

The test system of series [1] is Staphylococcus aureus. Briefly: Antibacterial activity against methicillin resistant Staphylococcus aureus ATCC 43300 assessed as reduction in microbial growth after 16 to 18 hrs by microbroth dilution method. The series is classed as functional. Conditions: time 16-18 hrs.
Series [2] concerns Staphylococcus aureus. Description: Antibacterial activity against methicillin resistant Staphylococcus aureus ATCC48706 assessed as reduction in microbial growth after 16 to 18 hrs by microbroth dilution method. Type of series: functional. As to conditions: time 16-18 hrs. (Dilution methods test growth across graded concentrations, often in twofold steps.)
The test system of a further series is Escherichia coli. Briefly: Antibacterial activity against Escherichia coli ATCC25922 assessed as reduction in microbial growth after 16 to 18 hrs by microbroth dilution method. The series is classed as functional. Conditions: ATCC 25922, time 16-18 hrs.
For another series, the system named is Pseudomonas aeruginosa. Description: Antibacterial activity against Pseudomonas aeruginosa ATCC27853 assessed as reduction in microbial growth after 16 to 18 hrs by microbroth dilution method. The series is classed as functional. As to conditions: time 16-18 hrs.
Series [3] relates to Staphylococcus aureus. Briefly: Antibacterial activity against methicillin resistant Staphylococcus aureus ATCC 43300 persisters assessed as reduction in colony formation at 8 ug/ml incubated for 2 hrs by colony counting method. The series is classed as functional, organism-based. As to conditions: dose 8.0 µg/ml.
Series [4] deals with Staphylococcus aureus. Description: Antibacterial activity against methicillin resistant Staphylococcus aureus ATCC 43300 persisters assessed as reduction in number of bacteria at 4 times MIC incubated for 4 hrs by colony counting method. The series is classed as functional, organism-based.
Series [5] concerns Cell membrane. Description: Induction of cell membrane depolarization in methicillin resistant Staphylococcus aureus ATCC 43300 measured up to 60 mins by DiOC5 dye based flow analyzer. Conditions: time min <=60, TDE = time-dependent effect.
The subject of series [6] is Staphylococcus aureus. Description: Induction of morphological changes in Staphylococcus aureus ATCC 43300 assessed as membrane damage at 8 times MIC after 90 mins by TEM analysis. The series is classed as functional, organism-based.
The test system of series [7] is Cell membrane. Description: Induction of cell membrane damage in methicillin resistant Staphylococcus aureus ATCC 43300 assessed as increase in nucleic acid leakage by measuring increase in absorbance at 260 nm at 0.5 to 2 times MIC measured every 30 mins for 6 hrs by spectrophotometry. Type of series: subcellular.
Series [8] relates to Staphylococcus aureus. Description: Inhibition of biofilm formation in methicillin-resistant Staphylococcus aureus ATCC 43300 at 4 times MIC incubated for 24 hrs by crystal violet staining based microplate reader assay. The series is classed as functional.
In series [9] the test system is Staphylococcus aureus. Description: Synergistic antimicrobial activity against Staphylococcus aureus ATCC 43300 assessed as FICI at 1 times MIC after 24 hrs in presence of 32 ug/ml piperacillin by checkerboard assay. The series is classed as functional.
For series [10], the system named is Staphylococcus aureus. Description: Synergistic antimicrobial activity against Staphylococcus aureus ATCC 43300 assessed as FICI at 1 times MIC after 24 hrs in presence of 8 ug/ml gentamicin by checkerboard assay. The series is classed as functional.
Series [11] deals with Staphylococcus aureus. Description: Synergistic antimicrobial activity against Staphylococcus aureus ATCC 43300 assessed as FICI at 1 times MIC after 24 hrs in presence of 128 ug/ml kanamycin by checkerboard assay. The series is classed as functional.
Series [12] is described as follows: Toxicity in BALB/c mouse infected with methicillin-resistant Staphylococcus aureus ATCC 43300 assessed as damage in heart at 50 to 200 mg/kg, sc administered every 24 hrs for 4 days by H&E staining based light microscopic analysis. Type of series: organism-based. Conditions: in vivo, dose 50-200 mg/kg.
A short description of series [13]: Toxicity in BALB/c mouse infected with methicillin-resistant Staphylococcus aureus ATCC 43300 assessed as damage in kidney at 50 to 200 mg/kg, sc administered every 24 hrs for 4 days by H&E staining based light microscopic analysis. Type of series: organism-based. As to conditions: in vivo, dose 50-200 mg/kg.

The source made the active and inactive calls. The rule behind the calls is not given here. Where only a bound is given, the exact number is not on record here.

In general, MIC refers to the lowest concentration that inhibits growth of the organism. As to `CC(C)=CCc1c(OCCF)cc(/C=C/c2ccc(F)cc2)c(C(=O)O)c1O`, the MIC with Staphylococcus aureus [1] was 4 µg/mL; in the series on Staphylococcus aureus [2], 4 µg/mL; in the series on Escherichia coli, more than 32 µg/mL; in the series on Pseudomonas aeruginosa, more than 32 µg/mL. For the same molecule, the outcome in the series with Staphylococcus aureus [3], in the series on Staphylococcus aureus [4], in the series with Staphylococcus aureus [6] and in the series with Cell membrane [7] was Active. In addition, the Activity result in the series with Cell membrane [5] is “Tde”; in [12] it was “Non-Toxic”; in series [13], “Non-Toxic”. Moreover, the “inhibition (INH)” value with Staphylococcus aureus [8] was determined as 90%. The “fractional inhibitory concentration index (FICI)” value was 0.315 in the series with Staphylococcus aureus [9], 0.75 with Staphylococcus aureus [10] and 0.75 in the series on Staphylococcus aureus [11].
